Source: ChEMBL document CHEMBL1201862, “PubChem BioAssay data set” (2004)
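These data come from cells grown in 96-well plates and exposed to compound for 48 hours at five concentrations. GI50 is the concentration that inhibits growth by half.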 Active and inactive are the calls of the source. Rule as the data show it: active = GI50 up to about 1.1 µM and inactive = higher.

Assays:
Assay in all cases: DTP human tumour cell line panel, 48 h
CAKI-1 = tested on: CAKI-1
OVCAR-3 = tested on: OVCAR-3
K562 = tested on: K562
NCI/ADR-RES = tested on: NCI/ADR-RES
SN12C = tested on: SN12C
MDA-MB-435 = tested on: MDA-MB-435
SF-539 = tested on: SF-539
OVCAR-4 = tested on: OVCAR-4
HCT-15 = tested on: HCT-15
ACHN = tested on: ACHN
OVCAR-5 = tested on: OVCAR-5
NCI-H23 = tested on: NCI-H23
UACC-257 = tested on: UACC-257
COLO 205 = tested on: COLO 205
SNB-75 = tested on: SNB-75
HCC 2998 = tested on: HCC 2998
A498 = tested on: A498
UO-31 = tested on: UO-31
MDA-N = tested on: MDA-N

SMILES	GI50 (CAKI-1)	GI50 (OVCAR-3)	GI50 (K562)	GI50 (NCI/ADR-RES)	GI50 (SN12C)	GI50 (MDA-MB-435)	GI50 (SF-539)	GI50 (OVCAR-4)	GI50 (HCT-15)	GI50 (ACHN)	GI50 (OVCAR-5)	GI50 (NCI-H23)	GI50 (UACC-257)	GI50 (COLO 205)	GI50 (SNB-75)	GI50 (HCC 2998)	GI50 (A498)	GI50 (UO-31)	GI50 (MDA-N)
O/N=N/c1ccc(-c2ccccc2)cn1	4.55 µM (inactive)	20.2 µM (inactive)	19.6 µM (inactive)	8.77 µM (inactive)	10.8 µM (inactive)	14.7 µM (inactive)	17.4 µM (inactive)	23.3 µM (inactive)	19.6 µM	2.86 µM (inactive)	20.3 µM (inactive)	4 µM (inactive)	43.9 µM (inactive)	15 µM (inactive)	6.46 µM (inactive)	16.9 µM (inactive)	13 µM (inactive)	13.2 µM (inactive)	
COC(=O)[C@]1(C)CC[C@]2(C)CC[C@]3(C)C4[C@H]5Oc6c(cc7c(c6C)CCC6[C@@]7(C)CC[C@@]7(C)C8[C@](C)(CCC[C@@]8(C)C(=O)OC)CC[C@]67C)O[C@H]5c5c(cc6c(c5C)O[C@@]5(C)C7=CC=C8[C@@](C)(CC[C@@]9(C)[C@@H]%10C[C@](C)(C(=O)OC)CC[C@]%10(C)CC[C@]89C)C7=CC(=O)[C@@]5(O)O6)[C@]4(C)CC[C@@]3(C)C2C1 (stereo partly drawn)	6.22 µM (inactive)	2.64 µM (inactive)	3.46 µM (inactive)	> 12.5 µM (inactive)	2.35 µM (inactive)	3.56 µM (inactive)	2.63 µM (inactive)	7.59 µM (inactive)	3.45 µM	3.94 µM (inactive)	9.79 µM (inactive)	8.97 µM (inactive)	2.83 µM (inactive)	6.35 µM (inactive)	2.79 µM (inactive)		> 12.5 µM (inactive)	2.52 µM (inactive)	1.93 µM (inactive)
CSC1=NN=C(SC)NN1	0.173 µM (active)	0.185 µM (active)	0.117 µM (active)	0.3 µM (active)	0.18 µM (active)	0.182 µM (active)	0.205 µM (active)	0.172 µM (active)	0.169 µM	0.168 µM (active)	0.179 µM (active)	0.285 µM (active)	0.131 µM (active)	0.198 µM (active)		0.378 µM (active)		0.188 µM (active)	0.18 µM (active)
COC(=O)C(Cc1ccc2c(c1)CCC2)Cc1ccc2c(c1)CCC2		85.1 µM (inactive)	43.1 µM (inactive)	> 100 µM (inactive)	> 100 µM (inactive)	48.8 µM (inactive)	> 100 µM (inactive)	> 100 µM (inactive)	89.7 µM	68.7 µM (inactive)	> 100 µM (inactive)	29.6 µM (inactive)	37 µM (inactive)	92.7 µM (inactive)	71.3 µM (inactive)		38.1 µM (inactive)	53.3 µM (inactive)	59.3 µM (inactive)
CC(C)(C)OC(=O)N1CCc2[nH][nH]c(=O)c2C1	> 100 µM (inactive)	> 100 µM (inactive)	> 100 µM (inactive)	> 100 µM (inactive)	> 100 µM (inactive)	> 100 µM (inactive)	> 100 µM (inactive)	> 100 µM (inactive)	> 100 µM			> 100 µM (inactive)	> 100 µM (inactive)	> 100 µM (inactive)			> 100 µM (inactive)	> 100 µM (inactive)	> 100 µM (inactive)
COc1ccc(C(C#N)NC23CC4CC(CC(C4)C2)C3)cc1 (stereo not drawn)	> 100 µM (inactive)	> 100 µM (inactive)	> 100 µM (inactive)	> 100 µM (inactive)	> 100 µM (inactive)	> 100 µM (inactive)	> 100 µM (inactive)	> 100 µM (inactive)	> 100 µM	> 100 µM (inactive)	> 100 µM (inactive)	> 100 µM (inactive)	> 100 µM (inactive)	> 100 µM (inactive)	> 100 µM (inactive)	> 100 µM (inactive)		> 100 µM (inactive)	> 100 µM (inactive)
Cc1ccc(S(=O)(=O)N2C[C@](O)(c3ccccc3)[C@H]2C)cc1	> 100 µM (inactive)			> 100 µM (inactive)	> 100 µM (inactive)	> 100 µM (inactive)	> 100 µM (inactive)	> 100 µM (inactive)	> 100 µM	> 100 µM (inactive)	> 100 µM (inactive)	> 100 µM (inactive)	> 100 µM (inactive)	> 100 µM (inactive)	89.3 µM (inactive)		> 100 µM (inactive)	> 100 µM (inactive)	> 100 µM (inactive)
CC1C2(C)OC(=N)C(C#N)(C(c3ccco3)O2)C1(C#N)C#N (stereo not drawn)	14.4 µM (inactive)	21.3 µM (inactive)	34.9 µM (inactive)	> 100 µM (inactive)	16.7 µM (inactive)		19.5 µM (inactive)		12.5 µM	36.6 µM (inactive)	29.7 µM (inactive)	29.9 µM (inactive)	20.5 µM (inactive)	13.6 µM (inactive)	97.3 µM (inactive)	26.9 µM (inactive)	> 100 µM (inactive)	38.5 µM (inactive)	19.8 µM (inactive)
NS(=O)(=O)c1ccc2c(c1)OCCOCCOCCOCCO2	> 100 µM (inactive)		> 100 µM (inactive)		> 100 µM (inactive)	> 100 µM (inactive)	> 100 µM (inactive)		> 100 µM	> 100 µM (inactive)		> 100 µM (inactive)	> 100 µM (inactive)	> 100 µM (inactive)	> 100 µM (inactive)	> 100 µM (inactive)	> 100 µM (inactive)	> 100 µM (inactive)	
Cc1cc2c(cc1Cl)SC(N/N=C(\N)c1ccc(Cl)cc1)=NS2(=O)=O	> 100 µM (inactive)	34.7 µM (inactive)	44 µM (inactive)	> 100 µM (inactive)	78.3 µM (inactive)	61.8 µM (inactive)	32.3 µM (inactive)	75.2 µM (inactive)	46.5 µM	84.3 µM (inactive)	> 100 µM (inactive)	30.7 µM (inactive)	62.7 µM (inactive)	42.3 µM (inactive)	74.5 µM (inactive)	40.6 µM (inactive)	32.9 µM (inactive)	42.7 µM (inactive)	
CC1(C)N=C(N)N=C(N)N1c1cccc(OCCOc2ccc([N+](=O)[O-])cc2)c1	> 100 µM (inactive)	41.6 µM (inactive)	41.9 µM (inactive)		6.49 µM (inactive)	5.04 µM (inactive)	15.2 µM (inactive)	63.5 µM (inactive)	> 100 µM	> 100 µM (inactive)	> 100 µM (inactive)	4.9 µM (inactive)	57.7 µM (inactive)	37.4 µM (inactive)			> 100 µM (inactive)		5.26 µM (inactive)
CN1C(=O)C(=CN)C(=O)N(C)C1=O	> 100 µM (inactive)	> 100 µM (inactive)	> 100 µM (inactive)		> 100 µM (inactive)			> 100 µM (inactive)	> 100 µM	> 100 µM (inactive)	> 100 µM (inactive)	> 100 µM (inactive)	> 100 µM (inactive)		> 100 µM (inactive)	> 100 µM (inactive)		> 100 µM (inactive)	
C[C@@H](c1ccccc1)N1CN(C(=O)OCc2ccccc2)C(CO)C1=O (stereo partly drawn)	> 100 µM (inactive)	> 100 µM (inactive)	84.5 µM (inactive)	> 100 µM (inactive)	> 100 µM (inactive)	> 100 µM (inactive)	> 100 µM (inactive)	> 100 µM (inactive)	> 100 µM	> 100 µM (inactive)	> 100 µM (inactive)	> 100 µM (inactive)	95.7 µM (inactive)	> 100 µM (inactive)	> 100 µM (inactive)	> 100 µM (inactive)			> 100 µM (inactive)
C[n+]1c(-c2ccc(/C=N/NC(=O)C(=O)N/N=C/c3ccc(-c4cn5ccsc5[n+]4C)cc3)cc2)cn2ccsc21			> 100 µM (inactive)	> 100 µM (inactive)	> 100 µM (inactive)	48.2 µM (inactive)	> 100 µM (inactive)	> 100 µM (inactive)	> 100 µM	> 100 µM (inactive)	> 100 µM (inactive)		> 100 µM (inactive)	> 100 µM (inactive)	> 100 µM (inactive)	> 100 µM (inactive)		> 100 µM (inactive)	47.8 µM (inactive)
Cc1cn(C2CC(COCc3ccccc3)N(CCO[Si](C)(C)C(C)(C)C)O2)c(=O)[nH]c1=O (stereo not drawn)	18.5 µM (inactive)	15 µM (inactive)	4.71 µM (inactive)	14.3 µM (inactive)	11 µM (inactive)	13 µM (inactive)	19.1 µM (inactive)	17.9 µM (inactive)		14.9 µM (inactive)	17.7 µM (inactive)	16.2 µM (inactive)		15.1 µM (inactive)			15.2 µM (inactive)	13.8 µM (inactive)	14.6 µM (inactive)
CC1=CC(=O)N(n2c(-c3ccccc3)n[nH]c2=O)C1=O	> 100 µM (inactive)	> 100 µM (inactive)	> 100 µM (inactive)	> 100 µM (inactive)	> 100 µM (inactive)	> 100 µM (inactive)	> 100 µM (inactive)	> 100 µM (inactive)	> 100 µM	> 100 µM (inactive)	> 100 µM (inactive)	> 100 µM (inactive)	> 100 µM (inactive)	> 100 µM (inactive)	> 100 µM (inactive)	> 100 µM (inactive)		> 100 µM (inactive)	
CC(C)=CCC/C(C)=C\CC/C(C)=C/CO	> 10 µM (inactive)	16.8 µM (inactive)	19.7 µM (inactive)	13.7 µM (inactive)	41.1 µM (inactive)	19.6 µM (inactive)	21 µM (inactive)	26.2 µM (inactive)	40.1 µM	22.4 µM (inactive)	> 100 µM (inactive)	23.8 µM (inactive)	36.1 µM (inactive)	40.1 µM (inactive)	31.9 µM (inactive)	22.6 µM (inactive)		22.5 µM (inactive)	65.6 µM (inactive)
